Test results published in patent US20190100731A1, “EX-VIVO […] MODEL, METHODS OF PRODUCING SAME AND USES THEREOF” (The State of Israel, Ministry of Agriculture & Rural …, priority 2016, published 2019).
Entries after “also recorded” stand apart in the source; their conditions may differ.

What was measured:
IL-6 = IL-6 production (ELISA) in ex-vivo intestinal biopsies; assay type: cell-based, human; conditions: D/C treated biopsies of patient P6; 18 hours; pure CBD 25 μM / 16.6 μM (FIG. 5)
Procedure: (§1) Biopsies (3 mm3) obtained from inflamed or healthy intestines and placed in PBS were treated with a Dispase (1 U/ml, Cat # 07923, StemCell Technologies Inc.) and Collagenase Type 1 (0.5 mg/ml with an activity of 0.5-2 U/mg Cat # 07902, StemCell Technologies Inc.) solution. Tubes were then incubated for 2-3h at 37° C.
After incubation, the tubes containing the biopsies were centrifuged at 5000 rpm for 1 minute. Then the supernatants were removed and tissues were washed three times with Hank's balance salt solution (HBSS). After each wash tubes were centrifuged as mentioned above. Then the tissues were placed on small Petri dish and cut into 2-3 pieces with a clean scalpel. […] The following cytokines were measured: TNF Alfa (the supernatant was taken after 1-3 h), for the rest of the cytokines and interleukins supernatant was analyzed after 16 hours. The following factors were analyzed: IFN gamma, TFG beta, IL-10, IL-23/IL-23R, IL-12, IL-1 (IL 113), IL 2, IL-8/IL-8R, IL-6, IL-17, IL-13, IL-5, IL-4, IL-3. […] After all samples are taken, tissue viability will be assessed by addition of Alamar blue (Risazurin) as described below. […]

IL-8 = IL-8 secretion (ELISA) in D/C-treated ex-vivo intestinal biopsies; assay type: cell-based, human; set-up: IL-8 secretion Value: unit not given here
Procedure: as §1
After incubation, the tubes containing the biopsies were centrifuged at 5000 rpm for 1 minute. Then the supernatants were removed and tissues were washed three times with Hank's balance salt solution (HBSS). After each wash tubes were centrifuged as mentioned above. Then the tissues were placed on small Petri dish and cut into 2-3 pieces with a clean scalpel. Explants were cultured in groups of 2-3 with the villus surface facing up on microporous membranes (0.45-m pore size) contained in either Millicell-HA or organotypic tissue culture inserts (Millipore) placed inside 6-well plastic tissue culture dishes (Costar 3506) along with 1.5 ml of tissue culture medium. The tissue culture medium was Dulbecco's modified Eagle's medium supplemented with 10% heat-inactivated fetal calf serum, penicillin (100units/ml), streptomycin (100 μg/ml), leupeptin (50 μg/ml), PMSF (1 mM), soybean trypsin inhibitor (50 μg/ml). In cases dexamethasone (DX) was included in the media, its concentration was 200 μg/ml. This is followed by treating the samples with Control and extracts treatments (cannabis or other). In cases TNF-α is added to induce ILs expression the concentration was 50 μg/ml. Cultures are then incubated at 37° C. and gassed hourly with 95% oxygen and 5% carbon dioxide. For evaluation of TNF-α expression, supernatants are taken after 1 h of incubation. For other ILs, supernatants are taken after overnight incubation unless mentioned differently. The supernatants from biopsies are used for determination of cytokine profile by measuring their levels using commercial ELISA Kits. The following cytokines were measured: TNF Alfa (the supernatant was taken after 1-3 h), for the rest of the cytokines and interleukins supernatant was analyzed after 16 hours. The following factors were analyzed: IFN gamma, TFG beta, IL-10, IL-23/IL-23R, IL-12, IL-1 (IL 113), IL 2, IL-8/IL-8R, IL-6, IL-17, IL-13, IL-5, IL-4, IL-3. Levels of secreted factors from inflamed and healthy tissue and from cannabis treated and not treated tissue were compared. After all samples are taken, tissue viability will be assessed by addition of Alamar blue (Risazurin) as described below.
Biopsies obtained from both healthy and sick intestinal samples of two patients were cultured overnight incubation using the full protocol (D/C) described in material and methods section hereinabove. Seven different cytokines were evaluated following overnight incubation using specific ELISA kits manufactured by R&D Systems.
The cytokines tested included TNF-α, IL-6, IL-8, IL-10, IL-12, IL-17 and IL-27. In addition to the ethanolic cannabis extract was tested for its ability to reduce inflammation. After supernatant sampling, additional media was added to the wells and Resazurin (alamar blue) viability assay was carried out. […] Responsive cytokines that show significant levels of expression (FIGS. 1A-F) on one hand vs. other ILs in which basal level were obtained which didn't allow a clear conclusion (FIGS. 2A-D).
Several more experiments were done to corroborate the above results. These are summarized in Table 1 below(C2F and F7 and dexamethasone).

[1] = biopsy PH-13-H: healthy patient 13, healthy tissue
[2] = biopsy PH-15-H: healthy patient 15, healthy tissue
[3] = biopsy PS-3-H: sick patient 3, healthy tissue
[4] = biopsy PS-3-S: sick patient 3, sick tissue
[5] = biopsy PS-4-H: sick patient 4, healthy tissue
[6] = biopsy PS-4-S: sick patient 4, sick tissue
[7] = biopsy PS-7-H: sick patient 7, healthy tissue
[8] = biopsy PS-7-S: sick patient 7, sick tissue
[9] = biopsy PS-8-H: sick patient 8, healthy tissue
[10] = biopsy PS-11-H: sick patient 11, healthy tissue
[11] = biopsy PS-11-S: sick patient 11, sick tissue
[12] = biopsy PS-12-H: sick patient 12, healthy tissue
[13] = biopsy PS-12-S: sick patient 12, sick tissue
[14] = biopsy PS-14-H: sick patient 14, healthy tissue
[15] = biopsy PS-14-S: sick patient 14, sick tissue
[16] = biopsy PS-16-H: sick patient 16, healthy tissue
[17] = biopsy PS-16-S: sick patient 16, sick tissue
[18] = biopsy PS-17-H: sick patient 17, healthy tissue
[19] = biopsy PS-17-S: sick patient 17, sick tissue
[20] = biopsy PS-18-H: sick patient 18, healthy tissue
[21] = biopsy PS-18-S: sick patient 18, sick tissue
[22] = biopsy PS-19-H: sick patient 19, healthy tissue
[23] = biopsy PS-19-S: sick patient 19, sick tissue

C=C(C)[C@@H]1CCC(C)=C[C@H]1c1c(O)cc(CCCCC)cc1O [CBD, Cannabidiol]
anti-inflammatory activity (IL-6 production) (IL-6): doesn't harbor any anti-inflammatory activity; also recorded: no anti-inflammatory activity

C[C@@H]1C[C@H]2[C@@H]3CCC4=CC(=O)C=C[C@]4(C)[C@@]3(F)[C@@H](O)C[C@]2(C)[C@@]1(O)C(=O)CO [Dexamethasone, dexamethasone]
IL-8 secretion % Reduction from NT (IL-8; [1]): −1.1%
IL-8 secretion Value (IL-8; [1]): 844.6
IL-8 secretion % Reduction from NT (IL-8; [2]): 46.4%
IL-8 secretion Value (IL-8; [2]): 451.9
IL-8 secretion % Reduction from NT (IL-8; [3]): 32.4%
IL-8 secretion Value (IL-8; [3]): 670.1
IL-8 secretion % Reduction from NT (IL-8; [4]): 17.5%
IL-8 secretion Value (IL-8; [4]): 742.6
IL-8 secretion % Reduction from NT (IL-8; [5]): 4.3%
IL-8 secretion Value (IL-8; [5]): 915.4
IL-8 secretion % Reduction from NT (IL-8; [6]): 78.3%
IL-8 secretion Value (IL-8; [6]): 216.9
IL-8 secretion % Reduction from NT (IL-8; [7]): 14.7%
IL-8 secretion Value (IL-8; [7]): 745.1
IL-8 secretion % Reduction from NT (IL-8; [8]): −5.6%
IL-8 secretion Value (IL-8; [8]): 793.9
IL-8 secretion % Reduction from NT (IL-8; [9]): 69.5%
IL-8 secretion Value (IL-8; [9]): 215.3
IL-8 secretion % Reduction from NT (IL-8; [10]): 94.8%
IL-8 secretion Value (IL-8; [10]): 34.9
IL-8 secretion % Reduction from NT (IL-8; [11]): 83.3%
IL-8 secretion Value (IL-8; [11]): 74.2
IL-8 secretion % Reduction from NT (IL-8; [12]): 43.7%
IL-8 secretion Value (IL-8; [12]): 530.6
IL-8 secretion % Reduction from NT (IL-8; [13]): 4.0%
IL-8 secretion Value (IL-8; [13]): 817.8
IL-8 secretion % Reduction from NT (IL-8; [14]): 44.2%
IL-8 secretion Value (IL-8; [14]): 485.8
IL-8 secretion % Reduction from NT (IL-8; [15]): 24.1%
IL-8 secretion Value (IL-8; [15]): 666.8
IL-8 secretion % Reduction from NT (IL-8; [16]): 38.3%
IL-8 secretion Value (IL-8; [16]): 166.5
IL-8 secretion % Reduction from NT (IL-8; [17]): 83.6%
IL-8 secretion Value (IL-8; [17]): 96.7
IL-8 secretion % Reduction from NT (IL-8; [18]): 68.9%
IL-8 secretion Value (IL-8; [18]): 303.5
IL-8 secretion % Reduction from NT (IL-8; [19]): 0.5%
IL-8 secretion Value (IL-8; [19]): 1064.0
IL-8 secretion % Reduction from NT (IL-8; [20]): 66.4%
IL-8 secretion Value (IL-8; [20]): 331.0
IL-8 secretion % Reduction from NT (IL-8; [21]): 36.1%
IL-8 secretion Value (IL-8; [21]): 484.9
IL-8 secretion % Reduction from NT (IL-8; [22]): 32.6%
IL-8 secretion Value (IL-8; [22]): 86.0
IL-8 secretion % Reduction from NT (IL-8; [23]): 64.2%
IL-8 secretion Value (IL-8; [23]): 80.5
